The text below walks through data of patent US12064464B2, “Plantaricin NC8 alpha beta markedly enhances the effects of antibiotics” (priority 2018, dated 2024).

Entries after “also recorded” stand apart in the source; their conditions may differ. Like-named read-outs stand apart in the source and are kept apart here. A value given as a limit tells only on which side of the number the result lay.

The test system of one assay is Pseudomonas aeruginosa. Kind of assay: Broth microdilution MIC/MBC. It counts as cell-based. The conditions noted are these: P. aeruginosa, antibiotic alone, unit not given. The source says: (§1) Staphylococcus aureus CCUG 35601 (MRSA, Culture Collection, University of Gothenburg) and Staphylococcus aureus ATCC 29213 (MSSA, ATCC, Manassas, VA). Staphylococcus epidermidis ATCC 12228 (ATCC, Manassas, VA), RP62A, N15 and 10 clinical isolates of Staphylococcus epidermidis that have previously been characterized. Isolated Escherichia coli, Enterococcus faecium (including VRE), Pseudomonas aeruginosa, Klebsiella pneumoniae, Enterobacter spp and Acinetobacter baumannii were obtained from Orebro University hospital. Isolated Streptococcus mutans, Streptococcus constellatus and Streptococcus anginosus were obtained from Malmo University. The bacteria were grown on Luria-Bertani (LB) agar plates, supplemented with 5% defibrinated horse blood, and incubated at 37° C. overnight. Single colonies were inoculated into 5 ml of LB broth and incubated on a shaker (300 rpm) at 37° C. overnight. The bacterial concentration was determined by viable count and adjusted to correlate with approximately 10^9 CFU/ml.
(§2) The broth microdilution method was used to determine minimal inhibitory concentration (MIC) and minimal bactericidal concentration (MBC). Two-fold serial dilutions of the peptides were used and the final concentrations ranged from 0.097-50 μM. […] The effect of bacteriocin-antibiotic combinations was accomplished by using the same concentration series of antibiotics with a constant concentration of PLNC8 αβ (3.1 μM) in all the wells. […] All experiments were repeated at least three times.
For orientation: Dilution methods test growth across graded concentrations, often in twofold steps.

Assay [1] relates to S. epidermidis ATCC 12228. Briefly: Broth microdilution MIC/MBC. The format is cell-based, Staphylococcus epidermidis. As to conditions: for enhancement of the inhibitory effects of β1-20 and β7-20: co-incubation with α-peptide; for growth inhibition of S. epidermidis: single full-length or truncated peptide.
From the text: as §1, §2

The next assay deals with Enterococcus faecium. Kind of assay: Broth microdilution MIC/MBC. It counts as cell-based. The conditions noted are these: antibiotic alone, unit inferred; for MIC: unit assumed.
From the text: as §1, §2

The subject of another assay is Escherichia coli. Kind of assay: Broth microdilution MIC/MBC. It counts as cell-based. As to conditions: antibiotic alone, unit not given; for MBC: in µg/mL.
From the text: as §1, §2

Another assay deals with S. epidermidis. Briefly: Broth microdilution MIC/MBC, strain not named. It counts as cell-based, Staphylococcus epidermidis. The conditions noted are these: for MBC / MIC: Table 8, antibiotic alone.
From the text: as §1, §2

In assay [2] the test system is S. aureus CCUG 35601 (MRSA). Briefly: Broth microdilution MIC/MBC. It counts as cell-based, Staphylococcus aureus.
From the text: as §1, §2

The subject of assay [3] is S. epidermidis 126 (hGISE strain). Kind of assay: Broth microdilution MIC/MBC. It counts as cell-based, Staphylococcus epidermidis.
From the text: as §1, §2

A further assay relates to S. epidermidis 154. Kind of assay: Broth microdilution MIC/MBC. It counts as cell-based, Staphylococcus epidermidis.
From the text: as §1, §2

Assay [4] deals with S. epidermidis 157 (hGISE strain). Kind of assay: Broth microdilution MIC/MBC. It counts as cell-based, Staphylococcus epidermidis.
From the text: as §1, §2

Assay [5] in a line: Fluorescence leakage assay (CF release from liposomes). As to conditions: peptide alone. On the procedure: Liposomes were prepared by dry film formation, hydration and finally extrusion through a polycarbonate membrane to form monodisperse large unilamellar vesicles. […] A dry lipid film was formed by evaporation of the chloroform by nitrogen flow and overnight lyophilization. The film was hydrated with either 10 mM phosphate buffer (PB) pH 7 or 10 mM phosphate buffer saline (PBS) pH 7, and the solution was vortexed for 1 min and put on a shaker for 1 h before extruded 21 times through a 100 nm pore-sized polycarbonate membrane. For fluorescence leakage assay the lipid film was hydrated with buffer (PBS) containing self-quenching concentration (50 mM) of 5(6)-carboxyfluorescein (CF) (Sigma Aldrich) and liposomes were prepared as described above. Removal of unencapsulated CF was done by gel filtration using a PD-25 column (GE Healthcare, Uppsala, Sweden) and liposomes with encapsulated CF were eluted with PBS. Leakage of the liposome encapsulated fluorophore CF due to additions of the bacteriocins was recorded using a fluorescence plate reader (Infinite 200, Tecan, Austria) where λex=485 nm and λem=520 nm. CF was encapsulated at self-quenching concentration, and CF release results in an increased fluorescence signal. […] In order to estimate the maximum release from each sample a final addition of 0.5% Triton X-100 was made at the end of all measurements and the total amount of CF (100% release) was estimated after 15 min incubation. The CF release is presented as percentage release for each time interval (measurements taken every minute). The percentage CF release is calculated as 100×(F−F0)/(FT−F0) where F0 is the initial fluorescence intensity of CF before peptide addition, F is the fluorescence intensity of CF at time point t and FT is the maximum fluorescence after the addition of Triton X-100.

The mark [6] stands for this setting: Vancomycin resistant E. faecium (VRE).
Setting [7] is: Non-ESBL E. coli, first isolate.
Setting [8] is: Non-ESBL E. coli, second isolate.
Setting [9] is: Staphylococcus epidermidis, 154.
Setting [10] is: Staphylococcus epidermidis, ATCC12228.
The mark [11] stands for this setting: ESBL-producing E. coli, first isolate.
Where [12] appears, read: ESBL-producing E. coli, second isolate.
Where [13] appears, read: Table 3, MRSA, antibiotic alone.

Consider `C[C@H]1COc2c(N3CCN(C)CC3)c(F)cc3c(=O)c(C(=O)O)cn1c23` [Levofloxacin, reference compound], for which, in the assay on Pseudomonas aeruginosa (first isolate), the MBC turned out to be 2 and the MIC was 1. In addition, in the assay with Pseudomonas aeruginosa (second isolate), the MBC came to 4 and the MIC came to 4.
For `C[C@@H](O)[C@H]1C(=O)N2C(C(=O)O)=C(S[C@@H]3CN[C@H](C(=O)N(C)C)C3)[C@H](C)[C@H]12` [Meropenem, reference compound], the figures for the MBC with Pseudomonas aeruginosa (first isolate) and in the assay with Pseudomonas aeruginosa (second isolate) were 50 and 25, respectively. The MIC with Pseudomonas aeruginosa (first isolate) and with Pseudomonas aeruginosa (second isolate) was 25 throughout.
As for `CO[C@H]1/C=C/O[C@@]2(C)Oc3c(C)c(O)c4c(O)c(c(/C=N/N5CCN(C)CC5)c(O)c4c3C2=O)NC(=O)/C(C)=C\C=C\[C@H](C)[C@H](O)[C@@H](C)[C@@H](O)[C@@H](C)[C@H](OC(C)=O)[C@@H]1C` [Rifampicin], the MBC was 0.5 µg/mL in assay [1] (Staphylococcus epidermidis, ATCC12228, Table 2, antibiotic alone, read-out: MBC); over 50 µg/mL with Enterococcus faecium (E. faecium, first isolate); over 50 µg/mL in the assay with Enterococcus faecium (E. faecium, second isolate); 3.1 µg/mL in the assay on Enterococcus faecium (setting [6]); 25 with Escherichia coli (setting [8]); 0.5 µg/mL in the assay with S. epidermidis (Staphylococcus epidermidis, read-out: MBC). Further, the MIC is 0.25 µg/mL in assay [1] (Staphylococcus epidermidis, ATCC12228, Table 2, antibiotic alone, read-out: MIC); over 50 µg/mL in the assay on Enterococcus faecium (E. faecium, first isolate); 25 µg/mL in the assay on Enterococcus faecium (E. faecium, second isolate); under 0.097 µg/mL in the assay with Enterococcus faecium (setting [6]); 6.25 with Escherichia coli (setting [7]); 6.25 with Escherichia coli (setting [8]). Further, the MIC in the assay with S. epidermidis (Staphylococcus epidermidis, read-out: MIC) is 0.25 µg/mL. Moreover, the “effective amount of rifampicin” value in the assay with S. epidermidis (in the presence of L-PLNC8 αβ or D-PLNC8 αβ) worked out at 0.0019 µg/mL.
`CN[C@H](CC(C)C)C(=O)N[C@H]1C(=O)N[C@@H](CC(N)=O)C(=O)N[C@H]2C(=O)N[C@H]3C(=O)N[C@H](C(=O)N[C@H](C(=O)O)c4cc(O)cc(O)c4-c4cc3ccc4O)[C@H](O)c3ccc(c(Cl)c3)Oc3cc2cc(c3O[C@@H]2O[C@H](CO)[C@@H](O)[C@H](O)[C@H]2O[C@H]2C[C@](C)(N)[C@H](O)[C@H](C)O2)Oc2ccc(cc2Cl)[C@H]1O` [Vancomycin]: the MBC in [2] (Staphylococcus aureus) is 3.1 µg/mL; in assay [3] (Staphylococcus epidermidis) it was 3.1 µg/mL; with S. epidermidis 154 (setting [9]) it was 3.1 µg/mL; in assay [4] (Staphylococcus epidermidis) it was 6.25 µg/mL; in [1] (setting [10]), 3.1 µg/mL. Further, the MIC in assay [2] (Staphylococcus aureus) came to 1.5 µg/mL; in assay [3] (Staphylococcus epidermidis) it was 3.1 µg/mL; in the assay on S. epidermidis 154 (setting [9]), 1.5 µg/mL; in assay [4] (Staphylococcus epidermidis) it was 6.25 µg/mL; in assay [1] (setting [10]), 1.5 µg/mL.
For the molecule “DLTTKLWSSWGYYLG (Lactobacillus plantarum NC8) [α1-15]”, in assay [1], the “enhancement of the inhibitory effects of β1-20 and β7-20” value was “not further enhanced; also recorded: did not further enhance”.
As to “DLTTKLWSSWGYYLGKKARWNL (Lactobacillus plantarum NC8) [α1-22]”, the “enhancement of the inhibitory effects of β1-20 and β7-20” value in assay [1] is “not further enhanced; also recorded: did not further enhance”. In assay [1] (α-peptide in combination with the β-peptide), the “inhibitory and bactericidal effects on S. epidermidis” value was “exerted inhibitory and bactericidal effects; also recorded: inhibited”. In assay [5], the “disruption of liposome membranes (CF release)” value (from here on “disruption”) was “disrupted the membrane of the liposomes”.
On to Gentamicin, for which the MBC in assay [1] (Table 2, antibiotic alone) is 0.31 µg/mL; in the assay on Enterococcus faecium (E. faecium, first isolate), over 50 µg/mL; in the assay on Enterococcus faecium (E. faecium, second isolate), 50 µg/mL; in the assay with Enterococcus faecium (setting [6]), over 50 µg/mL; with Escherichia coli (setting [11]), over 50; with Escherichia coli (setting [12]), 6.25. The MBC in the assay with Escherichia coli (setting [7]) was determined as 1.56; in the assay on Escherichia coli (setting [8]) it was 3.125. For the same molecule, the MIC in assay [1] (Table 2, antibiotic alone) is 0.31 µg/mL; in the assay on Enterococcus faecium (E. faecium, first isolate), 50 µg/mL; with Enterococcus faecium (E. faecium, second isolate), 50 µg/mL; with Enterococcus faecium (setting [6]) it was over 50 µg/mL; in the assay with Escherichia coli (setting [11]), over 50; in the assay on Escherichia coli (setting [12]), 3.125. Moreover, the MIC in the assay with Escherichia coli (setting [7]) and in the assay on Escherichia coli (setting [8]) was 1.56 throughout.
For “SVPTSVYTLGIKILWSAYKH (Lactobacillus plantarum NC8) [β1-20]”, in assay [1], the “growth inhibition of S. epidermidis” value was “most efficiently inhibited; also recorded: most effective in inhibiting S. epidermidis; also recorded: inhibited”. For the same molecule, in assay [5], the “disruption” value is listed as “Disruption of the liposome membranes”.
Take Teicoplanin: the MBC is 3.1 µg/mL in [2] (setting [13]); 6.25 µg/mL in assay [3] (Table 3, antibiotic alone); 1.5 µg/mL in the assay with S. epidermidis 154 (Table 3, antibiotic alone); 25 µg/mL in assay [4] (Table 3, antibiotic alone); 1.5 µg/mL in [1] (Table 2, antibiotic alone); over 50 µg/mL with Enterococcus faecium (E. faecium, first isolate). Further, the MBC in the assay on Enterococcus faecium (E. faecium, second isolate) was 25 µg/mL; in the assay on Enterococcus faecium (setting [6]), 50 µg/mL; in the assay with Escherichia coli (setting [11]) it was over 50; with Escherichia coli (setting [12]), over 50; with Escherichia coli (setting [7]), over 50; with Escherichia coli (setting [8]) it was over 50. Moreover, in the assay on S. epidermidis, the MBC worked out at 1.5 µg/mL. In addition, the MIC was 0.78 µg/mL in [2] (setting [13]); 3.1 µg/mL in [3] (Table 3, antibiotic alone); 1.5 µg/mL with S. epidermidis 154 (Table 3, antibiotic alone); 12.5 µg/mL in [4] (Table 3, antibiotic alone); 1.5 µg/mL in assay [1] (Table 2, antibiotic alone); over 50 µg/mL in the assay with Enterococcus faecium (E. faecium, first isolate). Moreover, the MIC was 0.39 µg/mL with Enterococcus faecium (E. faecium, second isolate); 0.39 µg/mL with Enterococcus faecium (setting [6]); over 50 in the assay on Escherichia coli (setting [11]); over 50 in the assay with Escherichia coli (setting [12]); over 50 in the assay with Escherichia coli (setting [7]); over 50 in the assay on Escherichia coli (setting [8]). In addition, in the assay on S. epidermidis, the MIC turned out to be 1.5 µg/mL.
On to “YTLGIKILWSAYKH (Lactobacillus plantarum NC8) [β7-20]”, for which the “growth inhibition of S. epidermidis” value in assay [1] is on record as “most efficiently inhibited; also recorded: inhibited”. In addition, in [5], the “disruption” value is “Disruption of the liposome membranes”.
For the molecule “YTLGIKILWSAYKHRKTIEKSFNKGFYH (Lactobacillus plantarum NC8) [β7-34]”, the “growth inhibition of S. epidermidis” value in assay [1] was “inhibited”. In addition, the “disruption” value in assay [5] is “Disruption of the liposome membranes”.
